Laboratory results published in BindingDB's records for doi:10.1073/pnas.0609412103 (Genomics Institute of The Novartis Research Foundation, 2007).
pIC50: −log10 of the molar value.

Test: Inhibition of Tel-fused RON kinase-mediated mouse BaF3 cell proliferation

pIC50: 5.79
SMILES: COc1cc(N2CCC(N3CCN(C)CC3)CC2)ccc1Nc1ncc(Cl)c(Nc2ccccc2S(=O)(=O)C(C)C)n1 [TAE684]
